Tests used:
Experiment in all cases: radiometric filter-binding kinase assay
[1] = target: MINK1 (human) (UniProt Q8N4C8)
[2] = target: JAK2 JH1 JH2 (human) (UniProt O60674)
[3] = target: MARK1 (human) (UniProt Q9P0L2)
[4] = target: CSK (human) (UniProt P41240)
[5] = target: CAMKK2 (human) (UniProt Q96RR4)
[6] = target: HIPK1 (human) (UniProt Q86Z02)
[7] = target: GSK3B (human) (UniProt P49841)
[8] = target: STK11 CAB39 STRADA (human) (UniProt Q9Y376+Q7RTN6+Q15831)
[9] = target: MAPKAPK5 (human) (UniProt Q8IW41)
[10] = target: DYRK3 (human) (UniProt O43781)
[11] = system: ROCK2 (rat); settings: accession and sequence are those of the human protein
[12] = target: CLK2 (human) (UniProt P49760)
[13] = target: IGF1R (human) (UniProt P08069)
[14] = target: IRAK4 (human) (UniProt Q9NWZ3)
[15] = target: BRSK1 (human) (UniProt Q8TDC3)
[16] = target: PRKCZ (human) (UniProt Q05513)
[17] = target: NTRK1 (human) (UniProt P04629)
[18] = target: TAOK1 (human) (UniProt Q7L7X3)
[19] = target: HIPK3 (human) (UniProt Q9H422)
[20] = target: FLT1 (human) (UniProt P17948); settings: compound 10.0 µM
[21] = system: AKT2 (human), P31751 [S474D]
[22] = target: FGFR1 (human) (UniProt P11362)
[23] = target: SRC (human) (UniProt P12931)
[24] = target: MAPK14 (human) (UniProt Q16539)
[25] = target: RIPK2 (human) (UniProt O43353)
[26] = target: EPHA2 (human) (UniProt P29317)
[27] = target: MAP3K7 TAB1 (human) (UniProt Q15750+O43318)
[28] = target: MAPK15 (human) (UniProt Q8TD08)
[29] = target: MELK (human) (UniProt Q14680)
[30] = system: LCK (mouse); settings: accession and sequence are those of the human protein
[31] = target: RPS6KA3 KD1 KD2 (human) (UniProt P51812)
[32] = target: CSNK1D (human) (UniProt P48730)
[33] = target: MAPK11 (human) (UniProt Q15759); settings: compound 10.0 µM
[34] = target: INSR (human) (UniProt P06213); settings: compound 10.0 µM

Chain of RPS6KA3 KD1 KD2 (human) (P51812 whole entry, looked up): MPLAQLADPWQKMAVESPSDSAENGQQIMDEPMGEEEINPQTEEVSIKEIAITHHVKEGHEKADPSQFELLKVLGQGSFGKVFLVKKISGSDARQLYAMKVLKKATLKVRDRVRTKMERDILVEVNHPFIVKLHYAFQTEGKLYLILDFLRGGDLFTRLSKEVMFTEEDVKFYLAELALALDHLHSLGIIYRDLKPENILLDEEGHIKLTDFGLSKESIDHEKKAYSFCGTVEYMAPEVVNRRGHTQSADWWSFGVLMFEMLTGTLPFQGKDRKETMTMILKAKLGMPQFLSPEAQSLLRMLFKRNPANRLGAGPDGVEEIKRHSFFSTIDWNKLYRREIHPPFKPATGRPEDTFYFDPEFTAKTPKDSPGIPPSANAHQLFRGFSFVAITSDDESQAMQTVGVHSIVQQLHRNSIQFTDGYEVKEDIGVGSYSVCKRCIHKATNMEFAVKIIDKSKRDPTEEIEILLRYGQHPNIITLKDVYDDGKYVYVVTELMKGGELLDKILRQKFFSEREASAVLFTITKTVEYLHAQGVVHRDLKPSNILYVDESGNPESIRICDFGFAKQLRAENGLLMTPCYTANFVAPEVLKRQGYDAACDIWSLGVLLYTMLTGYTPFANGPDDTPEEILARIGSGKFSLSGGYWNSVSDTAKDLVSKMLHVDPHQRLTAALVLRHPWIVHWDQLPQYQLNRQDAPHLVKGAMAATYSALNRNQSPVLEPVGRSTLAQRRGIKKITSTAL
Chain of DYRK3 (human) (O43781 whole entry, looked up): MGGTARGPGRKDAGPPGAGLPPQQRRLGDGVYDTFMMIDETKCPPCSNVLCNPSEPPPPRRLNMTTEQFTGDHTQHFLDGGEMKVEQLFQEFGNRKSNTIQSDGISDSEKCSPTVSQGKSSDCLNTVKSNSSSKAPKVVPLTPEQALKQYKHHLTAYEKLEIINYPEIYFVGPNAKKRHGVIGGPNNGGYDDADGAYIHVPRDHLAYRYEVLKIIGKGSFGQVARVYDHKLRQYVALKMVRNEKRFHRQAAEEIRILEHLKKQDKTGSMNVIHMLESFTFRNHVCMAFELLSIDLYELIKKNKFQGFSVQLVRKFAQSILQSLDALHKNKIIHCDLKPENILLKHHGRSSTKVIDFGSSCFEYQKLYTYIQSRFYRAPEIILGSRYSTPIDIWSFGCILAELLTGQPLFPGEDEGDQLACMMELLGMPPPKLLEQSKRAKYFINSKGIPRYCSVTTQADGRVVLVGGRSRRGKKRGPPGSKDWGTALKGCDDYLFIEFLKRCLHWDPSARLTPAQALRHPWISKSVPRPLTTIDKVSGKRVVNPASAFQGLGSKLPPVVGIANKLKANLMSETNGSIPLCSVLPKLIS
Chain of FGFR1 (human) (P11362 whole entry, looked up): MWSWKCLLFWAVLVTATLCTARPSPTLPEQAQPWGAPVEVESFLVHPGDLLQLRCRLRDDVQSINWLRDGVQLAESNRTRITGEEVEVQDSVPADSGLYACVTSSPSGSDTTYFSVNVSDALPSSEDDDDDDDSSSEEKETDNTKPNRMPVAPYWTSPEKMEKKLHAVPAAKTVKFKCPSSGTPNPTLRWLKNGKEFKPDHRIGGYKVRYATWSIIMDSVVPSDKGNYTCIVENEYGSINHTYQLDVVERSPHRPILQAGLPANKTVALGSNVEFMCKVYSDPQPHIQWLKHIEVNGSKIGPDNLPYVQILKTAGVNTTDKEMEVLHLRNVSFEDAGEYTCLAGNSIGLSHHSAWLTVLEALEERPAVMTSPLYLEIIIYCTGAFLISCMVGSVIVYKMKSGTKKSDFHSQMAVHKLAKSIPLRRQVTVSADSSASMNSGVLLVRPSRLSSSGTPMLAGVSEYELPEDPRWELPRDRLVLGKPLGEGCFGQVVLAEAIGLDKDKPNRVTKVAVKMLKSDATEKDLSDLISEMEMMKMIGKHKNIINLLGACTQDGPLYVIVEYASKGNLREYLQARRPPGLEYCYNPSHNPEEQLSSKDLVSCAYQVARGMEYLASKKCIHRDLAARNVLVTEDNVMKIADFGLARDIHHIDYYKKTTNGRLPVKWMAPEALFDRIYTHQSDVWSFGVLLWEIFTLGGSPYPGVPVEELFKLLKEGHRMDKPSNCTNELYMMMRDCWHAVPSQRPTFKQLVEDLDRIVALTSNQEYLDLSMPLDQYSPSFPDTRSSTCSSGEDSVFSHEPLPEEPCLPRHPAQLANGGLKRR
Chain of MELK (human) (Q14680 whole entry, looked up): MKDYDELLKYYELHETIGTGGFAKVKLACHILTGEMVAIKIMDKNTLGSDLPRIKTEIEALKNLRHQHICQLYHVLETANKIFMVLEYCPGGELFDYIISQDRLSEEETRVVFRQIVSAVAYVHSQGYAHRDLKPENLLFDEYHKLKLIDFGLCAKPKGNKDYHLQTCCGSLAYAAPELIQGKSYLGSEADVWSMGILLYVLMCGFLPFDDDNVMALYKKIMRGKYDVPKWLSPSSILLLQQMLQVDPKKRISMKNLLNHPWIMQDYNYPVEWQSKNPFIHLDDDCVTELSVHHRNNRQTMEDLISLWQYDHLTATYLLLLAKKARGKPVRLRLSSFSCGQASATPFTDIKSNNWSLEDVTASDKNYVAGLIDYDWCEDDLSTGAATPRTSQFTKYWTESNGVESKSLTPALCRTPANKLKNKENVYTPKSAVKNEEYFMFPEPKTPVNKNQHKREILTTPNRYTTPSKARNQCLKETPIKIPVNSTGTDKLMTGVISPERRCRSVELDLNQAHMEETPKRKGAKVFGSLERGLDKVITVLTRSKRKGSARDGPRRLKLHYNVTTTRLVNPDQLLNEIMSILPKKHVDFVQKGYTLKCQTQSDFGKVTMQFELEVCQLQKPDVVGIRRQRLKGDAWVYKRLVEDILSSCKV
Chain of CAMKK2 (human) (Q96RR4 whole entry, looked up): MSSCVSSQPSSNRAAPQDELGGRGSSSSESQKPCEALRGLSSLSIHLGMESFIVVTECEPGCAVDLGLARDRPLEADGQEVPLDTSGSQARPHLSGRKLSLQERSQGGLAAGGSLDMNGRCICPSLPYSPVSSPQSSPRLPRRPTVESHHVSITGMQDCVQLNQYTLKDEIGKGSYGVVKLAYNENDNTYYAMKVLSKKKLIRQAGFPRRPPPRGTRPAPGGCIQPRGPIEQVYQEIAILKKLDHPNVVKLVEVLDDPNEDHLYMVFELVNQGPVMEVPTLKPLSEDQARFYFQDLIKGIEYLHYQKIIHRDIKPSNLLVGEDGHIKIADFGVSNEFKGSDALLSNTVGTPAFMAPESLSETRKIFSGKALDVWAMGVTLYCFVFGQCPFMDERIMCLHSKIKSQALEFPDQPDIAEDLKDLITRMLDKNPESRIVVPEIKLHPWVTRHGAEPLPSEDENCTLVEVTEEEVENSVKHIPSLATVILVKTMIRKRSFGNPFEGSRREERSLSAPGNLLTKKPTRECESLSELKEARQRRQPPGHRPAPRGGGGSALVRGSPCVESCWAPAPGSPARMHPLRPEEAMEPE
Chain of HIPK3 (human) (Q9H422 whole entry, looked up): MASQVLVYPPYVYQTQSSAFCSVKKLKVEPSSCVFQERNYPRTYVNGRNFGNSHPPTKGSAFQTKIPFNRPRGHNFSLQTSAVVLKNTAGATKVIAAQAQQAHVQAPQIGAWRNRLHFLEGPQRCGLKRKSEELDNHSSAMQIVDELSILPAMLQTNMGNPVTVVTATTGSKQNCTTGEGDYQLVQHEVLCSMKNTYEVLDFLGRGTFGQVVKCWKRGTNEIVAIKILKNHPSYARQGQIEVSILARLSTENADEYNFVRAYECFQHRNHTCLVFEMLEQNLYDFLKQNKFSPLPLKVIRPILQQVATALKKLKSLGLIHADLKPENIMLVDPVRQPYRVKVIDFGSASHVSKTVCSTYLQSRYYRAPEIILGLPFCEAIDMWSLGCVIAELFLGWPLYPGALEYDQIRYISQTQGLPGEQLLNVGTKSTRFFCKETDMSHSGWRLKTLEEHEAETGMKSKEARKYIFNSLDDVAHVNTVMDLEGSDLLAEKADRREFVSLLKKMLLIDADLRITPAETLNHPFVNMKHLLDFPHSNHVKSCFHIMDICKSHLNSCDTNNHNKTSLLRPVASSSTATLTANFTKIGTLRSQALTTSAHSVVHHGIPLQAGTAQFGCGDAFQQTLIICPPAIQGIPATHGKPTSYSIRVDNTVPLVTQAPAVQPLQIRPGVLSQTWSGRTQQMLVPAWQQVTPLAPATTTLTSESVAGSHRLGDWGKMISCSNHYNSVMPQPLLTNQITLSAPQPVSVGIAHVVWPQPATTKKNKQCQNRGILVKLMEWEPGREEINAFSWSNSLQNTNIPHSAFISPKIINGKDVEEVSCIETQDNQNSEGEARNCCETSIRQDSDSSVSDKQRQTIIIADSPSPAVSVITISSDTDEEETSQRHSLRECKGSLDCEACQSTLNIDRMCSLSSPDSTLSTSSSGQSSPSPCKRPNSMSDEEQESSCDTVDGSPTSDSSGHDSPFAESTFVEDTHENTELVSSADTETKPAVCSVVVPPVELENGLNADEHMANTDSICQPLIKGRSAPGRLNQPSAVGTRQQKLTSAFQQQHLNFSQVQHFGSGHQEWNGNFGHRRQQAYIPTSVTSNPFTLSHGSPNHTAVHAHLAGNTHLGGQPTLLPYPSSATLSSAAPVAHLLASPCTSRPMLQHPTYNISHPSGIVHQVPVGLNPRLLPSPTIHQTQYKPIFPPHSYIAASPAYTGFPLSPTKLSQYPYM
Chain of GSK3B (human) (P49841 whole entry, looked up): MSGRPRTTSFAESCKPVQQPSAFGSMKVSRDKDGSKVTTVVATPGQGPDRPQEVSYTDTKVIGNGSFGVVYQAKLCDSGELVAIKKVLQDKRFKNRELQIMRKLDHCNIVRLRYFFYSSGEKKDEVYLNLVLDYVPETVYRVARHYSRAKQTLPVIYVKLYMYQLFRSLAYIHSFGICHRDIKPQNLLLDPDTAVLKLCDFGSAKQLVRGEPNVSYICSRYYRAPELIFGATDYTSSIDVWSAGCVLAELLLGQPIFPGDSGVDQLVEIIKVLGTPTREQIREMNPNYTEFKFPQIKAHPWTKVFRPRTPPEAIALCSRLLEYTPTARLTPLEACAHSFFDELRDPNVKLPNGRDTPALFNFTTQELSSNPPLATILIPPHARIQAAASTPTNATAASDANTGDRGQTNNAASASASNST

O=C(NOC[C@H](O)CO)c1ccc(F)c(F)c1Nc1ccc(I)cc1Cl
residual activity ([1]; compound 1.0 µM): 117%
residual activity ([1]; compound 10.0 µM): 144%
residual activity ([2]; compound 1.0 µM): 8%
residual activity ([2]; compound 10.0 µM): 9%
residual activity ([3]; compound 1.0 µM): 85%
residual activity ([3]; compound 10.0 µM): 85%
residual activity ([4]; compound 1.0 µM): 93%
residual activity ([4]; compound 10.0 µM): 98%
residual activity ([5]; compound 1.0 µM): 92%
residual activity ([5]; compound 10.0 µM): 94%
residual activity ([6]; compound 1.0 µM): 84%
residual activity ([6]; compound 10.0 µM): 92%
residual activity ([7]; compound 1.0 µM): 70%
residual activity ([7]; compound 10.0 µM): 88%
residual activity ([8]; compound 1.0 µM): 113%
residual activity ([9]; compound 1.0 µM): 98%
residual activity ([9]; compound 10.0 µM): 99%
residual activity ([10]; compound 1.0 µM): 85%
residual activity ([10]; compound 10.0 µM): 85%
residual activity ([11]; compound 1.0 µM): 84%
residual activity ([12]; compound 1.0 µM): 103%
residual activity ([12]; compound 10.0 µM): 85%
residual activity ([13]; compound 1.0 µM): 88%
residual activity ([13]; compound 10.0 µM): 113%
residual activity ([14]; compound 1.0 µM): 81%
residual activity ([14]; compound 10.0 µM): 100%
residual activity ([15]; compound 1.0 µM): 97%
residual activity ([15]; compound 10.0 µM): 112%
residual activity ([16]; compound 1.0 µM): 97%
residual activity ([16]; compound 10.0 µM): 104%
residual activity ([17]; compound 1.0 µM): 72%
residual activity ([17]; compound 10.0 µM): 75%
residual activity ([18]; compound 1.0 µM): 101%
residual activity ([18]; compound 10.0 µM): 109%
residual activity ([19]; compound 1.0 µM): 101%
residual activity ([19]; compound 10.0 µM): 107%
residual activity [20]: 39%
residual activity ([21]; compound 1.0 µM): 95%
residual activity ([21]; compound 10.0 µM): 82%
residual activity ([22]; compound 1.0 µM): 140%
residual activity ([22]; compound 10.0 µM): 83%
residual activity ([23]; compound 1.0 µM): 104%
residual activity ([23]; compound 10.0 µM): 91%
residual activity ([24]; compound 1.0 µM): 96%
residual activity ([24]; compound 10.0 µM): 97%
residual activity ([25]; compound 1.0 µM): 99%
residual activity ([25]; compound 10.0 µM): 100%
residual activity ([26]; compound 1.0 µM): 86%
residual activity ([26]; compound 10.0 µM): 94%
residual activity ([27]; compound 1.0 µM): 77%
residual activity ([27]; compound 10.0 µM): 82%
residual activity ([28]; compound 1.0 µM): 104%
residual activity ([28]; compound 10.0 µM): 96%
residual activity ([29]; compound 1.0 µM): 81%
residual activity ([29]; compound 10.0 µM): 97%
residual activity ([30]; compound 1.0 µM): 92%
residual activity ([30]; compound 10.0 µM): 109%
residual activity ([31]; compound 1.0 µM): 104%
residual activity ([31]; compound 10.0 µM): 92%
residual activity ([32]; compound 1.0 µM): 89%
residual activity ([32]; compound 10.0 µM): 101%

CCOC(=O)c1ccc(N2NC(=O)/C(=C/c3ccc([N+](=O)[O-])o3)C2=O)cc1
residual activity ([1]; compound 10.0 µM): 73%
residual activity ([2]; compound 10.0 µM): 17%
residual activity [33]: 113%
residual activity ([3]; compound 10.0 µM): 62%
residual activity ([5]; compound 10.0 µM): 125%
residual activity ([6]; compound 10.0 µM): 98%
residual activity ([7]; compound 10.0 µM): 106%
residual activity [34]: 99%
residual activity ([8]; compound 10.0 µM): 134%
residual activity ([9]; compound 10.0 µM): 97%
residual activity ([10]; compound 10.0 µM): 55%
residual activity ([11]; compound 10.0 µM): 91%
residual activity ([12]; compound 10.0 µM): 126%
residual activity ([14]; compound 10.0 µM): 112%
residual activity ([15]; compound 10.0 µM): 86%
residual activity ([16]; compound 10.0 µM): 112%
residual activity ([17]; compound 10.0 µM): 104%
residual activity ([18]; compound 10.0 µM): 126%
residual activity ([19]; compound 10.0 µM): 103%
residual activity [20]: 47%
residual activity ([21]; compound 10.0 µM): 49%
residual activity ([22]; compound 10.0 µM): 69%
residual activity ([24]; compound 10.0 µM): 105%
residual activity ([25]; compound 10.0 µM): 134%
residual activity ([26]; compound 10.0 µM): 90%
residual activity ([27]; compound 10.0 µM): 102%
residual activity ([28]; compound 10.0 µM): 86%
residual activity ([29]; compound 10.0 µM): 82%
residual activity ([30]; compound 10.0 µM): 121%
residual activity ([31]; compound 10.0 µM): 37%
residual activity ([32]; compound 10.0 µM): 112%

— the kinase profiling compilation of Christmann-Franck et al. (2016)
